Where two headings read alike, the source gives them in different places. Starred links: 1 amine or outer side, 2 acyl side, 3 side chain; linkers in the order of their positions; H or OH if unused. Non-standard residues stand in square brackets, D forms with d. Residues, ends and D or L forms follow the SMILES beside them. Groups on a side chain read outwards from the residue. *: point of attachment. Phe(4-NH2) = Nc1ccc(C[C@H](N)C(=O)O)cc1; Arachidoyl = CCCCCCCCCCCCCCCCCCCC(=O)*; d(εLys) = N[C@H](CCCCN[*:1])C(=O)[*:2]; Aib = CC(C)(N)C(=O)O; Sar = CNCC(=O)O
Legend:
[1] = format: in vitro ADME
Experimental: The peptides described above were incubated in PBS buffer or serum at 37° C. for up to 8 days. Samples were collected at different time points for PBS and plasma and half-life was determined. […] The peptides described above were incubated in PBS buffer or serum at 37° C. for up to 8 days. Samples were collected at different time points for PBS and plasma and half-life was determined. […] The shorter half-life seen when the acylated dipeptide was linked to […] might be due to a conformational change that facilitates cleavage when bound to plasma or alternatively to reduced detection of the acylated form when bound to plasma.

[2] = format: physicochemical; conditions: buffer
Experimental: Preliminary analyses were performed with these crude peptides for an approximation of their relative conversion rates in Phosphate Buffered Saline (PBS) buffer (pH, 7.2) using high performance liquid chromatography (HPLC) and MALDI analysis. The crude peptide samples were dissolved in the PBS buffer at a concentration of 1 mg/mL. […] Aliquots of 100 μL were drawn out at various time intervals, cooled to room temperature and analyzed by HPLC. […] The peptides described above were incubated in PBS buffer or serum at 37° C. for up to 8 days. Samples were collected at different time points for PBS and plasma and half-life was determined. […] The peptides described above were incubated in PBS buffer or serum at 37° C. for up to 8 days. Samples were collected at different time points for PBS and plasma and half-life was determined. […] The shorter half-life seen when the acylated dipeptide was linked to […] might be due to a conformational change that facilitates cleavage when bound to plasma or alternatively to reduced detection of the acylated form when bound to plasma.

GLP-1 receptor = GLP-1 receptor (Homo sapiens, UniProt P43220); test: GLP-receptor luciferase bioassay of samples incubated in 20% human plasma (restored activity); format: cell-based; conditions: 37° C.
Chain of GLP-1 receptor (P43220 24-463): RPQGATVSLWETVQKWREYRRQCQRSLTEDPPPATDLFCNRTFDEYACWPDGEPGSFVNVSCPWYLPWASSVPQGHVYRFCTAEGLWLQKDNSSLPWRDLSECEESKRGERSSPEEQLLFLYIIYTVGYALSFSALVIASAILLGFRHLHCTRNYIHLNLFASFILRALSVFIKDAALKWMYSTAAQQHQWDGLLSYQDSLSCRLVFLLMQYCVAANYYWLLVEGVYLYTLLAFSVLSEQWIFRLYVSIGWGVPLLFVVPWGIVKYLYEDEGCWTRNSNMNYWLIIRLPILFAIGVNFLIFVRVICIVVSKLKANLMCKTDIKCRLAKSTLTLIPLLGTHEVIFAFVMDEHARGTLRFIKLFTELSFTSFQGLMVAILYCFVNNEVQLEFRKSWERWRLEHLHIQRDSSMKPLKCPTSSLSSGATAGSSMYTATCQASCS
Experimental: To explore the possible formation of DKP and simultaneous regeneration of the parent drug, the above-mentioned peptides were incubated in 20% human plasma at 37° C. for approximately 5 days. Samples were collected at different time points (0, 1, 2, and 5 days).

Row | SMILES | half-life [1] | half-life [2] | Relative activity to GLP-1 standard (GLP-1 receptor; 0 d) | Restored (activity relative to parent peptide) (GLP-1 receptor; 0 d) | Change of activity over the time points in plasma (GLP-1 receptor; 0 to 5 d) | Relative activity to GLP-1 standard (GLP-1 receptor; 1 d) | Restored (activity relative to parent peptide) (GLP-1 receptor; 1 d) | Relative activity to GLP-1 standard (GLP-1 receptor; 5 d) | Restored (activity relative to parent peptide) (GLP-1 receptor; 5 d)
1 | CCCCCCCCCCCCCCCCCCCCCC(=O)NCCCC[C@@H](N)C(=O)N(C)CC(=O)NCCCC[C@H](NC(=O)[C@H](CO)NC(=O)[C@H](Cc1ccc(O)cc1)NC(=O)[C@H](CC(=O)O)NC(=O)[C@H](CO)NC(=O)[C@@H](NC(=O)[C@H](Cc1ccccc1)NC(=O)[C@@H](NC(=O)CNC(=O)[C@H](CCC(=O)O)NC(=O)C(C)(C)NC(=O)[C@@H](N)Cc1ccc(O)cc1)[C@@H](C)O)[C@@H](C)O)C(=O)N[C@@H](Cc1ccc(O)cc1)C(=O)N[C@@H](CC(C)C)C(=O)N[C@@H](CC(=O)O)C(=O)N[C@@H](CCCCN)C(=O)N[C@@H](CCC(N)=O)C(=O)N[C@@H](C)C(=O)N[C@@H](C)C(=O)NC(C)(C)C(=O)N[C@@H](CCC(=O)O)C(=O)N[C@@H](Cc1ccccc1)C(=O)N[C@H](C(=O)N[C@@H](CC(N)=O)C(=O)N[C@@H](Cc1c[nH]c2ccccc12)C(=O)N[C@@H](CC(C)C)C(=O)N[C@@H](CC(C)C)C(=O)N[C@@H](C)C(=O)NCC(=O)NCC(=O)N1CCC[C@H]1C(=O)N[C@@H](CO)C(=O)N[C@@H](CO)C(=O)NCC(=O)N[C@@H](C)C(=O)N1CCC[C@H]1C(=O)N1CCC[C@H]1C(=O)N1CCC[C@H]1C(=O)N[C@@H](CO)C(=O)O)C(C)C [Peptide F] | < 24 h | – | – | – | – | – | – | – | –
2 | CCCCCCCCCCCCCCCCCCCC(=O)NCCCC[C@@H](N)C(=O)N(C)CC(=O)Nc1ccc(C[C@H](NC(=O)[C@H](CC(=O)O)NC(=O)[C@H](CO)NC(=O)[C@@H](NC(=O)[C@H](Cc2ccccc2)NC(=O)[C@@H](NC(=O)CNC(=O)[C@H](CCC(=O)O)NC(=O)C(C)(C)NC(=O)[C@@H](N)Cc2ccccc2)[C@@H](C)O)[C@@H](C)O)C(=O)N[C@@H](CO)C(=O)N[C@H](C(=O)N[C@@H](Cc2ccc(O)cc2)C(=O)N[C@@H](CC(C)C)C(=O)N[C@@H](CC(=O)O)C(=O)N[C@@H](CCCCN)C(=O)N[C@@H](CCC(N)=O)C(=O)N[C@@H](C)C(=O)N[C@@H](C)C(=O)NC(C)(C)C(=O)N[C@@H](CCC(=O)O)C(=O)N[C@@H](Cc2ccccc2)C(=O)N[C@H](C(=O)N[C@@H](CC(N)=O)C(=O)N[C@@H](Cc2c[nH]c3ccccc23)C(=O)N[C@@H](CC(C)C)C(=O)N[C@@H](CC(C)C)C(=O)N[C@@H](C)C(=O)NCC(=O)NCC(=O)N2CCC[C@H]2C(=O)N[C@@H](CO)C(=O)N[C@@H](CO)C(=O)NCC(=O)N[C@@H](C)C(=O)N2CCC[C@H]2C(=O)N2CCC[C@H]2C(=O)N2CCC[C@H]2C(=O)N[C@@H](CO)C(N)=O)C(C)C)[C@@H](C)CC)cc1 (H-F[Aib]EGTFTSD[Phe(4-NH2)]([Sar-d(εLys)-Arachidoyl])SIYLDKQAA[Aib]EFVNWLLAGGPSSGAPPPS-NH2; N-terminus and C-terminus assumed) | – | ~24 h | 30.9% | Restored 36% | Activity Restored | 37.8% | Restored 45% | 96.9% | Restored 133%

Source: US20160058881A1, “PRODRUGS WITH PROLONGED ACTION” (INDIANA UNIVERSITY RESEARCH AND TECHNOLOGY CORPORATION, priority 2013, published 2016)
